Laboratory results: PMC10504751, “Chalcone/1,3,4-Oxadiazole/Benzimidazole hybrids as novel anti-proliferative agents inducing apoptosis and inhibiting EGFR & BRAFV^600E” (BMC Chemistry, 2023)

Legend:
Experiment in all cases: NCI one-dose SRB anti-proliferative screen
Format in all cases: cell-based
SW-620 = conditions: Homo sapiens; SW-620, Colon cancer; NCI one dose; read-out: Cell growth inhibition %
Summary of the method: (§1)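 Using a fixed 10 µM dose, anti-proliferative activity is measured through sulforhodamine B binding, read colorimetrically, in one of sixty human tumour lines.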

MDA-MB-435 = conditions: Homo sapiens; MDA-MB-435, Melanoma; NCI one dose; read-out: Cell growth inhibition %
Summary of the method: as §1

EKVX = conditions: Homo sapiens; EKVX, Non-Small Cell Lung Cancer; NCI one dose; read-out: Cell growth inhibition %
Summary of the method: as §1

NCI-H460 = conditions: Homo sapiens; NCI-H460, Non-Small Cell Lung Cancer; NCI one dose; read-out: Cell growth inhibition %
Summary of the method: as §1

OVCAR-4 = conditions: Homo sapiens; OVCAR-4, Ovarian Cancer; NCI one dose; read-out: Cell growth inhibition %
Summary of the method: as §1

SK-MEL-28 = conditions: Homo sapiens; SK-MEL-28, Melanoma; NCI one dose; read-out: Cell growth inhibition %
Summary of the method: as §1

SK-MEL-5 = conditions: Homo sapiens; SK-MEL-5, Melanoma; NCI one dose; read-out: Cell growth inhibition %
Summary of the method: as §1

CCRF-CEM = conditions: Homo sapiens; CCRF-CEM, Leukemia; NCI one dose; read-out: Cell growth inhibition %
Summary of the method: as §1

BT-549 = conditions: Homo sapiens; BT-549, Breast cancer; NCI one dose; read-out: Cell growth inhibition %
Summary of the method: as §1

MDA-MB-468 = conditions: Homo sapiens; MDA-MB-468, Breast cancer; NCI one dose; read-out: Cell growth inhibition %
Summary of the method: as §1

HL-60(TB) = conditions: Homo sapiens; HL-60(TB), Leukemia; NCI one dose; read-out: Cell growth inhibition %
Summary of the method: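 Activity reflects a single-point exposure at 10 µM, with cell mass determined by a sulforhodamine B dye assay.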

MALME-3M = conditions: Homo sapiens; MALME-3M, Melanoma; NCI one dose; read-out: Cell growth inhibition %
Summary of the method: as §1

SN12C = conditions: Homo sapiens, SN 12C, Renal cancer, NCI one dose, read-out: Cell growth inhibition %
Summary of the method: as §1

OVCAR-5 = conditions: Homo sapiens; OVCAR-5, Ovarian Cancer; NCI one dose; read-out: Cell growth inhibition %
Summary of the method: as §1

SNB-19 = conditions: Homo sapiens; SNB-19, CNS Cancer; NCI one dose; read-out: Cell growth inhibition %
Summary of the method: as §1

HT29 = conditions: Homo sapiens, HT-29; HT29, Colon cancer; NCI one dose; read-out: Cell growth inhibition %
Summary of the method: as §1

OVCAR-8 = conditions: Homo sapiens; OVCAR-8, Ovarian Cancer; NCI one dose; read-out: Cell growth inhibition %
Summary of the method: as §1

RPMI-8226 = conditions: Homo sapiens; RPMI-8226, Leukemia; NCI one dose; read-out: Cell growth inhibition %
Summary of the method: as §1

SK-OV-3 = conditions: Homo sapiens; SK-OV-3, Ovarian Cancer; NCI one dose; read-out: Cell growth inhibition %
Summary of the method: as §1

NCI/ADR-RES = conditions: Homo sapiens; NCI/ADR-RES, Ovarian Cancer; NCI one dose; read-out: Cell growth inhibition %
Summary of the method: as §1

UACC-257 = conditions: Homo sapiens; UACC-257, Melanoma; NCI one dose; read-out: Cell growth inhibition %
Summary of the method: as §1

HOP-62 = conditions: Homo sapiens; HOP-62, Non-Small Cell Lung Cancer; NCI one dose; read-out: Cell growth inhibition %
Summary of the method: as §1

NCI-H226 = conditions: Homo sapiens; NCI-H226, Non-Small Cell Lung Cancer; NCI one dose; read-out: Cell growth inhibition %
Summary of the method: as §1

M14 = conditions: Homo sapiens; M14, Melanoma; NCI one dose; read-out: Cell growth inhibition %
Summary of the method: as §1

TK-10 = conditions: Homo sapiens; TK-10, Renal cancer; NCI one dose; read-out: Cell growth inhibition %
Summary of the method: as §1

SF-539 = conditions: Homo sapiens; SF-539, CNS Cancer; NCI one dose; read-out: Cell growth inhibition %
Summary of the method: as §1

SR = conditions: Homo sapiens; SR, Leukemia; NCI one dose; read-out: Cell growth inhibition %
Summary of the method: as §1

ACHN = conditions: Homo sapiens; ACHN, Renal cancer; NCI one dose; read-out: Cell growth inhibition %
Summary of the method: as §1

PC-3 = conditions: Homo sapiens; PC-3, Prostate Cancer; NCI one dose; read-out: Cell growth inhibition %
Summary of the method: as §1

UO-31 = conditions: Homo sapiens; UO-31, Renal cancer; NCI one dose; read-out: Cell growth inhibition %
Summary of the method: as §1

UACC-62 = conditions: Homo sapiens; UACC-62, Melanoma; NCI one dose; read-out: Cell growth inhibition %
Summary of the method: as §1

LOX IMVI = conditions: Homo sapiens; for activity at 10 µM: LOX IMVI (Melanoma), 10 µM one dose, read-out: Growth Percent; for inhibition at 10 µM: Melanoma, NCI one dose, read-out: Cell growth inhibition %
Summary of the method: as §1

COc1ccc(-c2nc3cc(-c4nnc(SCC(=O)Nc5ccc(C(=O)/C=C/c6ccc(Cl)cc6)cc5)o4)ccc3[nH]2)cc1 [Compound 7l, 2-{5-[2-(4-Methoxyphenyl)-1 H-benzo[d]imidazol-5-yl]-1,3,4-oxadiazol-2-ylthio}-N-{4-[(E)-3-(4-chlorophenyl)acryloyl]phenyl}acetamide]
inhibition at 10 µM (SW-620): 3.03%
inhibition at 10 µM (MDA-MB-435): 0.7%
inhibition at 10 µM (EKVX): 0.26%
inhibition at 10 µM (NCI-H460): 0%
inhibition at 10 µM (OVCAR-4): 0%
inhibition at 10 µM (SK-MEL-28): 0%
inhibition at 10 µM (SK-MEL-5): 1.12%
inhibition at 10 µM (CCRF-CEM): 3.98%
inhibition at 10 µM (BT-549): 1.84%
inhibition at 10 µM (MDA-MB-468): 1.89%
inhibition at 10 µM (HL-60(TB)): 5.86%
inhibition at 10 µM (MALME-3M): 3.9%
inhibition at 10 µM (SN12C): 11.7%
inhibition at 10 µM (OVCAR-5): 0.55%
inhibition at 10 µM (SNB-19): 0%
inhibition at 10 µM (HT29): 0%
inhibition at 10 µM (OVCAR-8): 0%
inhibition at 10 µM (RPMI-8226): 20.1%
inhibition at 10 µM (SK-OV-3): 0%
inhibition at 10 µM (NCI/ADR-RES): 0%
inhibition at 10 µM (UACC-257): 0%
inhibition at 10 µM (HOP-62): 0.53%
inhibition at 10 µM (NCI-H226): 5.85%
inhibition at 10 µM (M14): 0%
inhibition at 10 µM (TK-10): 0%
inhibition at 10 µM (SF-539): 12.9%
inhibition at 10 µM (SR): 31.8%
inhibition at 10 µM (ACHN): 2.31%
inhibition at 10 µM (PC-3): 5.06%
inhibition at 10 µM (UO-31): 14.7%
inhibition at 10 µM (UACC-62): 6.01%
activity at 10 µM (LOX IMVI): -29.9%
inhibition at 10 µM (LOX IMVI): 130%

COc1ccc(/C=C/C(=O)c2ccc(NC(=O)CSc3nnc(-c4ccc5[nH]c(-c6ccc(OC)cc6)nc5c4)o3)cc2)cc1 [Compound 7m, 2-{5-[2-(4-Methoxyphenyl)-1 H-benzo[d]imidazol-5-yl]-1,3,4-oxadiazol-2-ylthio}-N-{4-[(E)-3-(4-methoxyphenyl)acryloyl]phenyl}acetamide]
inhibition at 10 µM (SW-620): 2%
inhibition at 10 µM (MDA-MB-435): 7.11%
inhibition at 10 µM (EKVX): 9.73%
inhibition at 10 µM (NCI-H460): 1.44%
inhibition at 10 µM (OVCAR-4): 6.89%
inhibition at 10 µM (SK-MEL-28): 2%
inhibition at 10 µM (SK-MEL-5): 22.2%
inhibition at 10 µM (CCRF-CEM): 38.5%
inhibition at 10 µM (BT-549): 14.3%
inhibition at 10 µM (MDA-MB-468): 0%
inhibition at 10 µM (HL-60(TB)): 21.9%
inhibition at 10 µM (MALME-3M): 17.8%
inhibition at 10 µM (SN12C): 23.1%
inhibition at 10 µM (OVCAR-5): 0%
inhibition at 10 µM (SNB-19): 3.7%
inhibition at 10 µM (HT29): 0%
inhibition at 10 µM (OVCAR-8): 23.4%
inhibition at 10 µM (RPMI-8226): 44.1%
inhibition at 10 µM (SK-OV-3): 0%
inhibition at 10 µM (NCI/ADR-RES): 0%
inhibition at 10 µM (UACC-257): 0%
inhibition at 10 µM (HOP-62): 4.92%
inhibition at 10 µM (NCI-H226): 16%
inhibition at 10 µM (M14): 0%
inhibition at 10 µM (TK-10): 0%
inhibition at 10 µM (SF-539): 18%
inhibition at 10 µM (SR): 40.5%
inhibition at 10 µM (ACHN): 0%
inhibition at 10 µM (PC-3): 14.7%
inhibition at 10 µM (UO-31): 7.02%
inhibition at 10 µM (UACC-62): 14.9%
inhibition at 10 µM (LOX IMVI): 81.5%

COc1ccc(-c2nc3cc(-c4nnc(SCC(=O)Nc5ccc(C(=O)/C=C/c6ccc(OC)c(OC)c6)cc5)o4)ccc3[nH]2)cc1 [Compound 7n, 2-{5-[2-(4-Methoxyphenyl)-1 H-benzo[d]imidazol-5-yl]-1,3,4-oxadiazol-2-ylthio}-N-{4-[(E)-3-(3,4-dimethoxyphenyl)acryloyl]phenyl}acetamide]
inhibition at 10 µM (SW-620): 13.6%
inhibition at 10 µM (MDA-MB-435): 6.15%
inhibition at 10 µM (EKVX): 4.36%
inhibition at 10 µM (NCI-H460): 8.91%
inhibition at 10 µM (OVCAR-4): 13.2%
inhibition at 10 µM (SK-MEL-28): 3.97%
inhibition at 10 µM (SK-MEL-5): 16.2%
inhibition at 10 µM (CCRF-CEM): 38.8%
inhibition at 10 µM (BT-549): 1.04%
inhibition at 10 µM (MDA-MB-468): 10.7%
inhibition at 10 µM (HL-60(TB)): 13.8%
inhibition at 10 µM (MALME-3M): 14.6%
inhibition at 10 µM (SN12C): 8.67%
inhibition at 10 µM (OVCAR-5): 0%
inhibition at 10 µM (SNB-19): 13.2%
inhibition at 10 µM (HT29): 0%
inhibition at 10 µM (OVCAR-8): 7.51%
inhibition at 10 µM (RPMI-8226): 32.3%
inhibition at 10 µM (SK-OV-3): 0%
inhibition at 10 µM (NCI/ADR-RES): 6.05%
inhibition at 10 µM (UACC-257): 1.66%
inhibition at 10 µM (HOP-62): 5.22%
inhibition at 10 µM (NCI-H226): 3.76%
inhibition at 10 µM (M14): 10.6%
inhibition at 10 µM (TK-10): 0%
inhibition at 10 µM (SF-539): 13.3%
inhibition at 10 µM (SR): 73.6%
inhibition at 10 µM (ACHN): 10.7%
inhibition at 10 µM (PC-3): 2.83%
inhibition at 10 µM (UO-31): 26.4%
inhibition at 10 µM (UACC-62): 15.8%
activity at 10 µM (LOX IMVI): 44%
inhibition at 10 µM (LOX IMVI): 56.1%

COc1ccc(-c2nc3cc(-c4nnc(SCC(=O)Nc5ccc(C(=O)/C=C/c6cc(OC)c(OC)c(OC)c6)cc5)o4)ccc3[nH]2)cc1 [Compound 7o, 2-{5-[2-(4-Methoxyphenyl)-1 H-benzo[d]imidazol-5-yl]-1,3,4-oxadiazol-2-ylthio}-N-{4-[(E)-3-(3,4,5-trimethoxyphenyl)acryloyl]phenyl}acetamide]
inhibition at 10 µM (SW-620): 0%
inhibition at 10 µM (MDA-MB-435): 0%
inhibition at 10 µM (EKVX): 0%
inhibition at 10 µM (NCI-H460): 0%
inhibition at 10 µM (OVCAR-4): 0%
inhibition at 10 µM (SK-MEL-28): 0%
inhibition at 10 µM (SK-MEL-5): 0.99%
inhibition at 10 µM (CCRF-CEM): 0%
inhibition at 10 µM (BT-549): 0%
inhibition at 10 µM (MDA-MB-468): 0%
inhibition at 10 µM (HL-60(TB)): 0%
inhibition at 10 µM (MALME-3M): 3.93%
inhibition at 10 µM (SN12C): 0%
inhibition at 10 µM (OVCAR-5): 0%
inhibition at 10 µM (SNB-19): 0%
inhibition at 10 µM (HT29): 0%
inhibition at 10 µM (OVCAR-8): 0%
inhibition at 10 µM (RPMI-8226): 23.2%
inhibition at 10 µM (SK-OV-3): 0%
inhibition at 10 µM (NCI/ADR-RES): 0%
inhibition at 10 µM (UACC-257): 0%
inhibition at 10 µM (HOP-62): 0%
inhibition at 10 µM (NCI-H226): 2.19%
inhibition at 10 µM (M14): 0%
inhibition at 10 µM (TK-10): 0%
inhibition at 10 µM (SF-539): 2.1%
inhibition at 10 µM (SR): 15.2%
inhibition at 10 µM (ACHN): 0%
inhibition at 10 µM (PC-3): 0%
inhibition at 10 µM (UO-31): 12.2%
inhibition at 10 µM (UACC-62): 5.12%
inhibition at 10 µM (LOX IMVI): 22.9%
